For assay [1], the system named is A. thaliana Columbia (Col-0). Description: Root hair elongation on phosphate limiting media. Type of assay: in vivo, Arabidopsis thaliana. The note with it: in DMSO (0.1%), images after seven days, vs DMSO (FIG. 3). From the text:
FIG. 3 is a boxplot representing the maximum root hair length in the root apical zone of A. thaliana treated with the control solvent DMSO, strigolactone molecule MBS-127 in DMSO, and strigolactone molecule MBS-128 in DMSO. Stars indicate significant differences relative to the DMSO control (*: adjusted p-value <0.01; p-values adjusted for multiple-hypothesis testing); non-parametric Mann-Whitney U-tests were used to assess significance. Representative images show root hairs in the root apical zone of plants treated with the control solvent DMSO, the strigolactone molecule MBS-127 in DMSO, and the strigolactone molecule MBS-128 in DMSO. Scale bars equal 1 mm. […]
In this experiment sterilized seeds of the A. thaliana Columbia (Col-0) ecotype were planted on growth media (Murashige and Skoog (MS) M404 with vitamins (2.2 g/L), 0.5% sucrose, 0.05% IVIES hydrate, 0.6% PhytoBlend™) and grown for nine days. […] The longest root hair, within the root apical zone, was measured from the images using ImageJ. […]

Assay [2] concerns S. lycopersicum cv. Micro-Tom. Description: Stomatal conductance (LI-6400XT) after ABA treatment in tomato. Type of assay: in vivo, Solanum lycopersicum. The note with it: 500 μM in DMSO (0.1%) applied one hour before ABA (100 μM), compared to ABA alone (FIG. 6). The source says: FIG. 6 is a boxplot showing the distribution of tomato (S. lycopersicum cv. Micro-Tom) stomatal conductance (mmol/m^2/s) measurements taken via LI-6400XT, plotted by treatment. Plants treated with strigolactone molecule MBS-127 prior to treatment with abscisic acid (ABA) show increased stomatal conductance, as measured by gas exchange with the LI-6400XT, compared to plants treated with ABA alone. Stars indicate significant differences relative to ABA (*: adjusted P<0.05, **: adjusted P<0.01; p-values were adjusted for multiple-hypothesis testing using a Bonferroni correction).
An early response and critical component of abiotic stress response signaling in plants is the production and transport of the phytohormone abscisic acid (ABA) (Kuromori, T., et al., “ABA Transport and Plant Water Stress Responses,” Trends in Plant Science (2018) Vol. 23 (6), pp. 513-522). […]

On to `COC(=O)/C=C/OC1C=C(C)C(=O)O1` (stereo not drawn) [MBS-127, 3-(4-Methyl-5-oxo-2,5-dihydro-furan-2-yloxy)-acrylic acid methyl ester], for which the “root hair elongation and proliferation (maximum root hair length in the root apical zone)” value in assay [1] is “enhance root hair elongation and proliferation”. The “leaf (stomatal) conductance after ABA” value in assay [2] is on record as “protect against the drought stress response related reduction in leaf conductance induced by ABA”. For `COC(=O)/C=C/OC1(C)C=C(C)C(=O)O1` (stereo not drawn) [MBS-128, methyl (E)-3-((2,4-dimethyl-5-oxo-2,5-dihydrofuran-2-yl)oxy)acrylate], the “root hair elongation and proliferation (maximum root hair length in the root apical zone)” value in assay [1] was “enhance root hair elongation and proliferation”.
